Results from patent publication US20260207569A1, “LPA1 ANTAGONISTS FOR TREATING INTERSTITIAL LUNG DISEASE” (Bristol-Myers Squibb Company, priority 2022, published 2026).

Experiment: Phase 2 PPF cohort safety: adverse events, prespecified asymptomatic or symptomatic blood pressure reduction criteria, dose reductions
Assay type: in vivo, human
Details: for Patients with asymptomatic blood pressure reduction, (%) / Patients with asymptomatic blood pressure reduction, no. / Patients with symptomatic blood pressure reduction, (%) / Patients with symptomatic blood pressure reduction, no.: prespecified criteria
Protocol: A total of 123 participants with PPF were randomized. Participants (age ≥21 years) were randomized (1:1:1) to receive 30 mg or 60 mg Compound A or PBO twice daily for 26 weeks. […] Immunosuppressive medications (mycophenolate mofetil, mycophenolic acid, azathioprine and/or tacrolimus) were permitted only if dosing is stable for ≥6 months prior to screening. If receiving antifibrotic agents pirfenidone or nintedanib, patients had to receive a stable dosage for ≥3 months prior to screening and during the screening period; if not receiving pirfenidone or nintedanib, patients had to be naive to both drugs or not have received either 4 weeks prior to Day 1. A total of 47 (38.2%) subjects were receiving antifibrotic treatment (with or without immunosuppression therapy). Of those subjects, 34 were being treated with nintedanib and 13 with pirfenidone. Participants were stratified by usual interstitial pneumonia (UIP) pattern (presence versus absence) and background therapy (antifibrotics +/−ILD-targeted immunosuppression versus ILD-targeted immunosuppression alone versus none). UIP pattern was present in 52% of subjects and unclassifiable ILD was he most common disease categorization.
Patient is experiencing any of the following, confirmed by retest within 15 minutes: • Seated systolic blood pressure <85 mmHg • Seated diastolic blood pressure <55 mmHg • Orthostatic hypotension
Patient is experiencing symptoms that, in the investigator's opinion, could be associated with a reduction in blood pressure and is also experiencing at least one of the following, confirmed by retest within 15 minutes: • Seated systolic blood pressure <100 mmHg or seated diastolic blood pressure <60 mmHg • Decrease of seated systolic blood pressure of ≥20 mmHg from the previous visit or decrease of seated diastolic blood pressure of ≥10 mmHg from the previous visit • Orthostatic hypotension • Orthostatic tachycardia

[1] = PPF cohort, 30-mg Compound A (n = 40)
[2] = PPF cohort, 60-mg Compound A (n = 42)

## CCCN(C)C(=O)OCc1c(-c2ccc(O[C@H]3CCC[C@H](C(=O)O)C3)c(C)n2)nnn1C [Compound A, (1S,3S)-3-((2-methyl-6-(1-methyl-5-(((methyl(propyl)carbamoyl)-oxy)methyl)-1H-1,2,3-triazol-4-yl)pyridin-3-yl)oxy)cyclohexane-1-carboxylic acid]
PPF cohort
  Day-1 blood pressure reduction: dose dependent day-1 blood pressure reduction
  Marked laboratory abnormalities: No notable imbalances in marked laboratory abnormalities among treatment groups
  Prespecified blood pressure reduction criteria across arms: increased in a dose-dependent manner
[1]
  Patients with dose reductions, (%): (15.0) %
  Patients with dose reductions, no.: 6 no.
  Patients with orthostatic hypotension (within asymptomatic blood pressure reduction), (%): (15.0) %
  Patients with orthostatic hypotension (within asymptomatic blood pressure reduction), no.: 6 no.
  Patients with orthostatic hypotension (within symptomatic blood pressure reduction), (%): (2.5) %
  Patients with orthostatic hypotension (within symptomatic blood pressure reduction), no.: 1 no.
  Patients with asymptomatic blood pressure reduction, (%): (22.5) %
  Patients with asymptomatic blood pressure reduction, no.: 9 no.
  Patients with symptomatic blood pressure reduction, (%): (5.0) %
  Patients with symptomatic blood pressure reduction, no.: 2 no.
[2]
  Patients with dose reductions, (%): (11.9) %
  Patients with dose reductions, no.: 5 no.
  Patients with orthostatic hypotension (within asymptomatic blood pressure reduction), (%): (26.2) %
  Patients with orthostatic hypotension (within asymptomatic blood pressure reduction), no.: 11 no.
  Patients with orthostatic hypotension (within symptomatic blood pressure reduction), (%): (9.5) %
  Patients with orthostatic hypotension (within symptomatic blood pressure reduction), no.: 4 no.
  Patients with asymptomatic blood pressure reduction, (%): (31.0) %
  Patients with asymptomatic blood pressure reduction, no.: 13 no.
  Patients with symptomatic blood pressure reduction, (%): (14.3) %
  Patients with symptomatic blood pressure reduction, no.: 6 no.
PPF, 30 mg BID
  Low BP thresholds (“events”): 30%
PPF, 30 mg BID (n = 40)
  COVID-19, %: (15.0) %
  COVID-19, no.: 6
  Cough, %: (7.5) %
  Cough, no.: 3
  Deaths due to TEAEs, no.: 0
  Diarrhea, %: (15.0) %
  Diarrhea, no.: 6
  Discontinuations due to TEAEs, %: (2.5) %
  Discontinuations due to TEAEs, no.: 1
  Dizziness, no.: 0
  Dyspnea, %: (5.0) %
  Dyspnea, no.: 2
  Hypertension, no.: 0
  Hypotension, %: (10.0) %
  Hypotension, no.: 4
  Nausea, %: (10.0) %
  Nausea, no.: 4
  Orthostatic hypotension, %: (5.0) %
  Orthostatic hypotension, no.: 2
  Patients with ≥1 TEAE related to study drug, no.: 7
  Patients with ≥1 TEAE, no.: 33
  Patients with ≥1 TESAE, no.: 4
  Rash, %: (7.5) %
  Rash, no.: 3
  Vomiting, %: (7.5) %
  Vomiting, no.: 3
PPF, 60 mg BID
  Orthostatic hypotension (asymptomatic and symptomatic) vs other groups: higher in the 60 mg group than for other groups
PPF, 60 mg BID (n = 42)
  COVID-19, %: (14.3) %
  COVID-19, no.: 6
  Cough, %: (11.9) %
  Cough, no.: 5
  Deaths due to TEAEs, no.: 0
  Diarrhea, %: (7.1) %
  Diarrhea, no.: 3
  Discontinuations due to TEAEs, no.: 0
  Dizziness, %: (9.5) %
  Dizziness, no.: 4
  Dyspnea, no.: 0
  Hypertension, %: (2.4) %
  Hypertension, no.: 1
  Hypotension, %: (7.1) %
  Hypotension, no.: 3
  Nausea, %: (2.4) %
  Nausea, no.: 1
  Orthostatic hypotension, %: (9.5) %
  Orthostatic hypotension, no.: 4
  Patients with ≥1 TEAE related to study drug, no.: 11
  Patients with ≥1 TEAE, no.: 28
  Patients with ≥1 TESAE, no.: 5
  Rash, no.: 0
  Vomiting, no.: 0
PPF, 60 mg BID versus placebo
  Adverse event profile other than low blood pressure: generally in favor of the 60 mg group versus placebo
